From patent US9079901B2, “Fused heterocyclic compounds as ion channel modulators” (Gilead Sciences, Inc., priority 2010, dated 2015)

Molecular target: wild-type human cardiac sodium channel, hNav1.5 (late sodium current) in HEK293 cells (Homo sapiens, UniProt Q14524)
Assay: Late INa screening assay (automated whole-cell patch clamp, PatchXpress)
Format: cell-based
Settings: HEK293, compound at 1 μM; late INa generated with 10 μM Tefluthrin (or 50 nM ATX II); HEK293 hNav1.5; read-out: Late INa 1 μM (percent block of late INa)
In short: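 Percent block was derived from mean current 225–250 ms into a 250 ms depolarisation to −20 mV (holding −120 mV, every 10 s), normalised to the current left in Na-free solution. Whole-cell recordings came from HEK293 cells stably expressing α-subunit-only hNav1.5, at 24–27 °C. Late current was enhanced with 10 μM tefluthrin or 50 nM ATX II, then compound (typically 10 μM) was added three times over 7–8 min.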

Chain of wild-type human cardiac sodium channel, hNav1.5 (late sodium current) in HEK293 cells (Q14524 whole entry): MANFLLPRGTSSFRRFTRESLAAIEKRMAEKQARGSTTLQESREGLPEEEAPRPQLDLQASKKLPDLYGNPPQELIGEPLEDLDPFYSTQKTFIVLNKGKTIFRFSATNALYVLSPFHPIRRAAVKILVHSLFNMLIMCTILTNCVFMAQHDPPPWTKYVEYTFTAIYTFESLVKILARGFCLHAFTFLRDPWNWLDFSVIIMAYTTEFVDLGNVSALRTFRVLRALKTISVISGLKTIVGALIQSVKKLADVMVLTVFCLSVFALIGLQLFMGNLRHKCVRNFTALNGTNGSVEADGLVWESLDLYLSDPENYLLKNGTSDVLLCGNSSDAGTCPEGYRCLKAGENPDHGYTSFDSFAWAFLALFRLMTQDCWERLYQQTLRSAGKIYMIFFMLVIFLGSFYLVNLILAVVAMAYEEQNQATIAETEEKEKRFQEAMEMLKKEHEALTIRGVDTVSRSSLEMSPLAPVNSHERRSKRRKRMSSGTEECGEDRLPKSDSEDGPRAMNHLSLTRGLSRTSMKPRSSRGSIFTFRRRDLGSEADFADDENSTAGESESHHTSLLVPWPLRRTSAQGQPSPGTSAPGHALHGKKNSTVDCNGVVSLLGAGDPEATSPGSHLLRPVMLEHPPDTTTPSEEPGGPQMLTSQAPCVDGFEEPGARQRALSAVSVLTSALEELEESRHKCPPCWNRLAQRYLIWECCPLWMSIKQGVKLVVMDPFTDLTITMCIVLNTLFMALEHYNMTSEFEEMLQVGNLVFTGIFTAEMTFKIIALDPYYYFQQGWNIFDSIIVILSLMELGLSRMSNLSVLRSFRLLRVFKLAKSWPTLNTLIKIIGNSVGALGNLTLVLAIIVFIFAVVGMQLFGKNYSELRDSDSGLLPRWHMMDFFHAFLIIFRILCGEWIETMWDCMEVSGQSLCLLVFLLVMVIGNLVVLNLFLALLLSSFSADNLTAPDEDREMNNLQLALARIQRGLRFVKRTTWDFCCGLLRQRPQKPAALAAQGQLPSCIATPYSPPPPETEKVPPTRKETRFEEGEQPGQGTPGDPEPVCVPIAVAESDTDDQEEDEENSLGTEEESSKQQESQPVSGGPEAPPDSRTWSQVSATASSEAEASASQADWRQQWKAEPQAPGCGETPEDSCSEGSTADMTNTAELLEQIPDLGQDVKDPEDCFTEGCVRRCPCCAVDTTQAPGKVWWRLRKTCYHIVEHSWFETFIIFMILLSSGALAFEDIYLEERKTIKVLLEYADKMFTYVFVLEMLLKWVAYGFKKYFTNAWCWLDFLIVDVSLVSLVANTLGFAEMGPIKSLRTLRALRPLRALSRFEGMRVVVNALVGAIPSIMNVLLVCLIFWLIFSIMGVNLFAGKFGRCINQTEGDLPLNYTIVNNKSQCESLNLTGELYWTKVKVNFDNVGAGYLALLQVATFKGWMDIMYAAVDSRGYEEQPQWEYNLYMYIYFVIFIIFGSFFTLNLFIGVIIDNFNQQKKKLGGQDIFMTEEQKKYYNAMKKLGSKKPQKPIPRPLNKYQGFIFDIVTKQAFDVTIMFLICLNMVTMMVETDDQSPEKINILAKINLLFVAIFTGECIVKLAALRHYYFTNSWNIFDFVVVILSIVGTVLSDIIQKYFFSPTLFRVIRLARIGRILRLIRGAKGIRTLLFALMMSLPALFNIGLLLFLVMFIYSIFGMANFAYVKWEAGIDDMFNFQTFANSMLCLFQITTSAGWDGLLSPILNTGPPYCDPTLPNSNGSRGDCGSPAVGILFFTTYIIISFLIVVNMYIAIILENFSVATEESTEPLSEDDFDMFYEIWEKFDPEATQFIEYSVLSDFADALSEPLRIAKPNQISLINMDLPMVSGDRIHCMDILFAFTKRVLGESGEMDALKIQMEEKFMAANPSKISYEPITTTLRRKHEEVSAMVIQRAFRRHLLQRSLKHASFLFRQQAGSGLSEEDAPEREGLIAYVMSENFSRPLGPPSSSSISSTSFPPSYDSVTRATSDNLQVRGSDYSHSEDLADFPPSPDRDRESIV

Compared with `O=c1n(Cc2noc(COc3ncccn3)n2)nc2ccc(-c3ccc(OC(F)(F)F)cc3)cn12` [compound 162, 2-((5-((pyrimidin-2-yloxy)methyl)-1,2,4-oxadiazol-3-yl)methyl)-6-(4-(trifluoromethoxy)phenyl)-[1,2,4]triazolo[4,3-a]pyridin-3(2H)-one], `O=c1n(Cc2noc(COc3ccccn3)n2)nc2ccc(-c3ccc(OC(F)(F)F)cc3)cn12` [compound 175, 2-((5-((pyridin-2-yloxy)methyl)-1,2,4-oxadiazol-3-yl)methyl)-6-(4-(trifluoromethoxy)phenyl)-[1,2,4]triazolo[4,3-a]pyridin-3(2H)-one] is higher in inhibition at 1 µM: 18.5% for the first, 28.9% for the second.

Going from `Cn1cc(Cn2nc3ccc(-c4ccc(OC(F)(F)F)cc4)cn3c2=O)cn1` [compound 163, 2-((1-methyl-1H-pyrazol-4-yl)methyl)-6-(4-(trifluoromethoxy)phenyl)-[1,2,4]triazolo[4,3-a]pyridin-3(2H)-one] to `Cn1ccc(Cn2nc3ccc(-c4ccc(OC(F)(F)F)cc4)cn3c2=O)n1` [compound 165, 2-((1-methyl-1H-pyrazol-3-yl)methyl)-6-(4-(trifluoromethoxy)phenyl)-[1,2,4]triazolo[4,3-a]pyridin-3(2H)-one], the inhibition at 1 µM falls from 12% to 10.8%.

Compared with `Cc1cc(Cn2nc3ccc(-c4ccc(OC(F)(F)F)cc4)cn3c2=O)on1` [compound 164, 2-((3-methylisoxazol-5-yl)methyl)-6-(4-(trifluoromethoxy)phenyl)-[1,2,4]triazolo[4,3-a]pyridin-3(2H)-one], `Cc1coc(Cn2nc3ccc(-c4ccc(OC(F)(F)F)cc4)cn3c2=O)n1` [compound 191, 2-((4-methyloxazol-2-yl)methyl)-6-(4-(trifluoromethoxy)phenyl)-[1,2,4]triazolo[4,3-a]pyridin-3(2H)-one] is higher in inhibition at 1 µM: 16.9% for the first, 28.9% for the second.

Compared with `CCc1noc(Cn2nc3ccc(-c4ccc(OC(F)(F)F)cc4)cn3c2=O)n1` [compound 166, 2-((3-ethyl-1,2,4-oxadiazol-5-yl)methyl)-6-(4-(trifluoromethoxy)phenyl)-[1,2,4]triazolo[4,3-a]pyridin-3(2H)-one], `CCc1noc(Cn2nc3ccc(-c4ccc(C(F)(F)F)cc4)cn3c2=O)n1` [compound 167, 2-((3-ethyl-1,2,4-oxadiazol-5-yl)methyl)-6-(4-(trifluoromethyl)phenyl)-[1,2,4]triazolo[4,3-a]pyridin-3(2H)-one] is higher in inhibition at 1 µM: 24.4% for the first, 26.2% for the second.

First: COCc1noc(Cn2nc3ccc(-c4ccc(C(F)(F)F)cc4)cn3c2=O)n1 [compound 168, 2-((3-(methoxymethyl)-1,2,4-oxadiazol-5-yl)methyl)-6-(4-(trifluoromethyl)phenyl)-[1,2,4]triazolo[4,3-a]pyridin-3(2H)-one]
Second: Cc1coc(Cn2nc3ccc(-c4ccc(C(F)(F)F)cc4)cn3c2=O)n1 [compound 192, 2-((4-methyloxazol-2-yl)methyl)-6-(4-(trifluoromethyl)phenyl)-[1,2,4]triazolo[4,3-a]pyridin-3(2H)-one]
The inhibition at 1 µM of the first is lower: 19.1% for the first, 34.4% for the second.

Going from `[2H]C([2H])([2H])c1noc(Cn2nc3ccc(-c4ccc(OC(F)(F)F)cc4)cn3c2=O)n1` [compound 169, 2-((3-trideuteromethyl-1,2,4-oxadiazol-5-yl)methyl)-6-(4-(trifluoromethoxy)phenyl)-[1,2,4]triazolo[4,3-a]pyridin-3(2H)-one] to `Cc1noc(Cn2nc3ccc(-c4ccc(OC(F)(F)F)cc4)c(C)n3c2=O)n1` [compound 188, 5-methyl-2-((3-methyl-1,2,4-oxadiazol-5-yl)methyl)-6-(4-(trifluoromethoxy)phenyl)-[1,2,4]triazolo[4,3-a]pyridin-3(2H)-one], the inhibition at 1 µM falls from 24.1% to 17.3%.

Compared with `O=c1n(Cc2nnc(C3CC3)s2)nc2ccc(-c3ccc(OC(F)(F)F)cc3)cn12` [compound 170, 2-((5-cyclopropyl-1,3,4-thiadiazol-2-yl)methyl)-6-(4-(trifluoromethoxy)phenyl)-[1,2,4]triazolo[4,3-a]pyridin-3(2H)-one], `O=c1n(Cc2nc(C3CC3)co2)nc2ccc(-c3ccc(OC(F)(F)F)cc3)cn12` [compound 193, 2-((4-cyclopropyloxazol-2-yl)methyl)-6-(4-(trifluoromethoxy)phenyl)-[1,2,4]triazolo[4,3-a]pyridin-3(2H)-one] is higher in inhibition at 1 µM: 18% for the first, 33.8% for the second.

First: O=c1[nH]nc2ccc(-c3ccc(C(F)(F)F)cc3)cn12 [compound 171, 6-(4-(trifluoromethyl)phenyl)-[1,2,4]triazolo[4,3-a]pyridin-3(2H)-one]
Second: Cn1nc2ccc(-c3ccc(C(F)(F)F)cc3)cn2c1=O [compound 185, 2-methyl-6-(4-(trifluoromethyl)phenyl)-[1,2,4]triazolo[4,3-a]pyridin-3(2H)-one]
The inhibition at 1 µM of the first is higher: 19.6% for the first, 10.1% for the second.

Compared with `Cc1cnc(Cn2nc3ccc(-c4ccc(C(F)(F)F)cc4)cn3c2=O)o1` [compound 172, 2-((5-methyloxazol-2-yl)methyl)-6-(4-(trifluoromethyl)phenyl)-[1,2,4]triazolo[4,3-a]pyridin-3(2H)-one], `CC(C)(C)c1cnc(Cn2nc3ccc(-c4ccc(C(F)(F)F)cc4)cn3c2=O)o1` [compound 184, 2-((5-tert-butyloxazol-2-yl)methyl)-6-(4-(trifluoromethyl)phenyl)-[1,2,4]triazolo[4,3-a]pyridin-3(2H)-one] is lower in inhibition at 1 µM: 24.8% for the first, 18.9% for the second.

Compared with `Cc1nc(Cn2nc3ccc(-c4ccc(C(F)(F)F)cc4)cn3c2=O)oc1C` [compound 173, 2-((4,5-dimethyloxazol-2-yl)methyl)-6-(4-(trifluoromethyl)phenyl)-[1,2,4]triazolo[4,3-a]pyridin-3(2H)-one], `CC(C)(C)c1cnc(Cn2nc3ccc(-c4ccc(OC(F)(F)F)cc4)cn3c2=O)o1` [compound 183, 2-((5-tert-butyloxazol-2-yl)methyl)-6-(4-(trifluoromethoxy)phenyl)-[1,2,4]triazolo[4,3-a]pyridin-3(2H)-one] is lower in inhibition at 1 µM: 22.2% for the first, 14.6% for the second.

Compared with `O=c1n(CCOc2nccn3ccnc23)nc2ccc(-c3ccc(OC(F)(F)F)cc3)cn12` [compound 174, 2-(2-(imidazo[1,2-a]pyrazin-8-yloxy)ethyl)-6-(4-(trifluoromethoxy)phenyl)-[1,2,4]triazolo[4,3-a]pyridin-3(2H)-one], `O=c1n(CCOc2ncc(C(F)(F)F)cn2)nc2ccc(-c3ccc(OC(F)(F)F)cc3)cn12` [compound 180, 6-(4-(trifluoromethoxy)phenyl)-2-(2-(5-(trifluoromethyl)pyrimidin-2-yloxy)ethyl)-[1,2,4]triazolo[4,3-a]pyridin-3(2H)-one] is lower in inhibition at 1 µM: 26.3% for the first, 22.6% for the second.

Going from `CCOc1ccccc1OCc1nc(Cn2nc3ccc(-c4ccc(OC(F)(F)F)cc4)cn3c2=O)no1` [compound 176, 2-((5-((2-ethoxyphenoxy)methyl)-1,2,4-oxadiazol-3-yl)methyl)-6-(4-(trifluoromethoxy)phenyl)-[1,2,4]triazolo[4,3-a]pyridin-3(2H)-one] to `CC(C)Oc1ccnc(OCCn2nc3ccc(-c4ccc(OC(F)(F)F)cc4)cn3c2=O)n1` [compound 177, 2-(2-(4-isopropoxypyrimidin-2-yloxy)ethyl)-6-(4-(trifluoromethoxy)phenyl)-[1,2,4]triazolo[4,3-a]pyridin-3(2H)-one], the inhibition at 1 µM rises from 25.5% to 25.8%.

Compared with `O=c1n(CCOc2nccc(OCC(F)(F)F)n2)nc2ccc(-c3ccc(OC(F)(F)F)cc3)cn12` [compound 178, 2-(2-(4-(2,2,2-trifluoroethoxy)pyrimidin-2-yloxy)ethyl)-6-(4-(trifluoromethoxy)phenyl)-[1,2,4]triazolo[4,3-a]pyridin-3(2H)-one], `O=c1n(CCOc2nccc(OCC3CC3)n2)nc2ccc(-c3ccc(OC(F)(F)F)cc3)cn12` [compound 179, 2-(2-(4-(cyclopropylmethoxy)pyrimidin-2-yloxy)ethyl)-6-(4-(trifluoromethoxy)phenyl)-[1,2,4]triazolo[4,3-a]pyridin-3(2H)-one] is higher in inhibition at 1 µM: 14.2% for the first, 30.3% for the second.

Compared with `O=c1n(Cc2coc(C3CC3)n2)nc2ccc(-c3ccc(OC(F)(F)F)cc3)cn12` [compound 181, 2-((2-cyclopropyloxazol-4-yl)methyl)-6-(4-(trifluoromethoxy)phenyl)-[1,2,4]triazolo[4,3-a]pyridin-3(2H)-one], `O=c1n(CC(F)(F)F)nc2ccc(-c3ccc(OC(F)(F)F)cc3)cn12` [compound 189, 2-(2,2,2-trifluoroethyl)-6-(4-(trifluoromethoxy)phenyl)-[1,2,4]triazolo[4,3-a]pyridin-3(2H)-one] is lower in inhibition at 1 µM: 23.9% for the first, 15.3% for the second.

Going from `O=c1n(Cc2nnc(C3CC3)o2)nc2ccc(-c3ccc(Oc4ccc(F)cc4)cc3)cn12` [compound 182, 2-((5-cyclopropyl-1,3,4-oxadiazol-2-yl)methyl)-6-(4-(4-fluorophenoxy)phenyl)-[1,2,4]triazolo[4,3-a]pyridin-3(2H)-one] to `O=c1n(CCN2CC[C@@H](Oc3ccc(F)cc3)C2)nc2ccc(-c3ccc(OC(F)(F)F)cc3)cn12` [compound 186, (R)-2-(2-(3-(4-fluorophenoxy)pyrrolidin-1-yl)ethyl)-6-(4-(trifluoromethoxy)phenyl)-[1,2,4]triazolo[4,3-a]pyridin-3(2H)-one], the inhibition at 1 µM falls from 45.9% to 37.3%.

Compared with `Cc1c(-c2ccc(OC(F)(F)F)cc2)ccc2n[nH]c(=O)n12` [compound 187, 5-methyl-6-(4-(trifluoromethoxy)phenyl)-[1,2,4]triazolo[4,3-a]pyridin-3(2H)-one], `CC(C)n1nc2ccc(-c3ccc(OC(F)(F)F)cc3)cn2c1=O` [compound 190, 2-isopropyl-6-(4-(trifluoromethoxy)phenyl)-[1,2,4]triazolo[4,3-a]pyridin-3(2H)-one] is lower in inhibition at 1 µM: 29.8% for the first, 17.6% for the second.
